Where two headings read alike, the source gives them in different places.
How the values were obtained:
PARP = assay: Western blot, Aβ25-35-induced cleavage of PARP; assay type: cell-based, Rat; settings: 25 μM Aβ25-35, 36 h
Protocol: After treatment, cells (1×10^7 cells/7 ml in 100φ dish) were collected and washed with PBS. After centrifugation, cell lysis was carried out at 4° C. by vigorous shaking for 15 min in RIPA buffer (150 mM NaCl, 1% NP-40, 0.5% sodium deoxycholate, 0.1% SDS, 50 mM Tris-HCl (pH 7.4), 50 mM glycerphosphate, 20 mM NaF, 20 mM EGTA, 1 mM DTT, 1 mM Na3VO4 and protease inhibitors). After centrifugation at 15,000 rpm for 15 min, supernatant was separated and stored at −70° C. until use. The protein concentration was determined by using the bicinchrinic acid (BCA) protein assay kit (Pierce, Rockford, Ill., USA). After addition of sample loading buffer, protein samples were electrophoresed on a 12.5% SDS-polyacrylamide gel. Proteins were transferred to polyvinylidene difluoride blots at 300 mA for 3 h. The blots were blocked for 1 h at room temperature in fresh blocking buffer (0.1% Tween-20 in Tris-buffered saline, pH 7.4 containing 5% non-fat dried milk). Dilutions (1:1000) of primary anti-poly(ADP-ribose)polymerase (PARP), anti-Bcl-XL and anti-Bax antibodies were made in PBS with 3% non-fat dry milk. Following three washes with PBST (PBS and 0.1% Tween-20), the blots were incubated with horseradish peroxidase-conjugated secondary antibodies in PBS with 3% non-fat dry milk for 1 h at room temperature. […]

PC12 cells = assay: MTT dye reduction assay, Aβ25-35-induced cytotoxicity; assay type: cell-based, Rat; settings: 1 mM EGT, added 30 min prior to Aβ25-35; 36 h
Protocol: PC12 cells were maintained in DMEM supplemented with 10% heat-inactivated horse serum and 5% fetal bovine serum at 37° C. in a humidified atmosphere of 10% CO2/90% air. All cells were cultured in poly-D-lysine coated culture dishes. The medium was changed every other day, and cells were plated at an appropriate density according to each experimental scale. After 24 h subculture, cells were switched to serum-free N-2 defined medium for treatment. For determination of cell viability, PC12 cells were initially plated at a density of 4×10^4 cells/300 μl in 48-well plates, and the cell viability was determined by the conventional MTT reduction and the lactate dehydrogenase (LDH) release assay as described below.
The MTT assay is a sensitive measurement of the normal metabolic status of cells, particularly that of mitochondria, which reflects early cellular redox changes. After incubation, cells were treated with the MTT solution (final concentration, 1 mg/ml) for 2 h. The dark blue formazan crystals formed in intact cells were dissolved in DMSO, and absorbance at 570 nm was measured with a microplate reader. Results were expressed as the percentage (%) of MTT reduction, assuming that the absorbance of control cells was 100%.

[1] = Man; cited from earlier work
NF-κB = assay: EMSA, Aβ25-35-induced NF-κB DNA binding activity; assay type: cell-based, Rat; settings: 25 μM Aβ25-35 for 1 h; EGT pretreatment (0.5 mM, 1 mM)
Protocol: To explore the molecular mechanisms underlying the protective effect of L-ergothioneine against Aβ25-35-induced nitrosative cell death, the activation of NF-κB was assessed by EMSA using an oligonucleotide containing a consensus κB binding element. After treatment with 25 μM Aβ25-35 for 1 h in the absence or presence of L-ergothioneine, PC12 cells (1×10^7 cells/7 ml in 100φ dish) were washed with PBS, centrifuged, and resuspended in ice-cold isotonic buffer A [10 mM HEPES, pH 7.9, 1.5 mM MgCl2, 10 mM KCl, 0.5 mM dithiothreitol (DTT) and 0.2 mM phenylmethylsulfonyl fluoride (PMSF)]. Following incubation in an ice bath for 10 min, cells were centrifuged again and resuspended in ice-cold buffer C containing 20 mM HEPES (pH 7.9), 20% glycerol, 420 mM […], 1.5 mM MgCl2, 0.2 mM EDTA, 0.5 mM DTT and 0.2 mM PMSF followed by incubation at 0° C. for 20 min. After vortex-mixing, the resulting suspension was centrifuged, and the supernatant was stored at −70° C. for the NF-κB DNA binding assay. The protein concentration was determined by using the BCA protein assay kit.
Synthetic double strand oligonucleotide containing the NF-κB binding domain was labeled with [γ-^32P]ATP using T4 polynucleotide kinase and separated from unincorporated [γ-^32P]ATP by gel filtration using a nick spin column (Phamacia Biotech, Bjorkgatan, Sweden). […]

peroxynitrite = assay: Intracellular peroxynitrite formation (DHR123 fluorescence); assay type: cell-based, Rat; settings: 25 μM Aβ25-35, 36 h; L-ergothioneine present in the media
Protocol: To monitor intracellular formation of peroxynitrite, the fluorescent probe DHR123 was used. DHR123 is lipophilic and readily diffuses across cell membranes. Upon oxidation of DHR to fluorescent rhodamine, one of the two covalent amino groups tautomerizes to a changed imino, effectively trapping rhodamine within cells. DHR is not oxidized by nitric oxide (NO) but peroxynitrite effectively oxidizes it. After treatment with Aβ25-35 (25 μM) for 36 h in the presence or absence of L-ergothioneine, cells (1×10^4 cells/1 ml in 4-well chamber slide) were rinsed with saline A, and 10 μM DHR in saline A containing 5% fetal bovine serum was loaded. After 20 min incubation at 37 C, cells were examined under a confocal microscope equipped with an argon laser (488 nm; 200 mW). To quntitate peroxynitrite generation in response to Aβ25-35, total peroxynitrite production (basal+incease) was divided by basal peroxynitrite generation. Changes in fluorescence intensity are expressed as a percentage of the control.

[2] = Dog; cited from earlier work
[3] = Cat; cited from earlier work
[4] = Guinea Pig; cited from earlier work

Which “cleavage of PARP” value (PARP) does the source give for C[N+](C)(C)[C@@H](Cc1c[nH]c(=S)[nH]1)C(=O)[O-] [L-ergothioneine, 2-mercaptohistidine trimethylbetaine] here?
The value was “inhibited”.

What about the “cytotoxic effect of Aβ25-35 (MTT reduction)” value (PC12 cells) of the same molecule?
Its value is “inhibited”.

What about the “L-Ergothioneine Concentration (mg/100 ml blood)” value (“L-Ergothioneine Concentration” below) [1] of the same molecule?
The value was 1-4 mg/100 ml blood.

And the “NF-κB DNA binding” value (NF-κB)?
Its value is “inhibited”.

What about the intracellular peroxynitrite formation (peroxynitrite) of the same molecule?
Its intracellular peroxynitrite formation is “significantly reduced”.

And the “L-Ergothioneine Concentration” value [2]?
The value was 3-6 mg/100 ml blood.

What about the “L-Ergothioneine Concentration” value [3] of the same molecule?
The value was 0.5-2 mg/100 ml blood.

What about the “L-Ergothioneine Concentration” value [4] of the same molecule?
Its value is 1-4 mg/100 ml blood.
